This is an account of results in PubChem BioAssay AID652212 (Johns Hopkins Ion Channel Center, 2013).

Molecules are shown by their SMILES. Active and inactive are the calls of the source.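 How the source made its calls: active means peak inhibition of the TASK1 potassium channel above a set limit at some dose, plus a fitted dose response; inactive means no inhibition at any dose, or no fitted curve.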

Sequence of Potassium channel subfamily K member 3 (Homo sapiens) (O14649 whole entry, looked up): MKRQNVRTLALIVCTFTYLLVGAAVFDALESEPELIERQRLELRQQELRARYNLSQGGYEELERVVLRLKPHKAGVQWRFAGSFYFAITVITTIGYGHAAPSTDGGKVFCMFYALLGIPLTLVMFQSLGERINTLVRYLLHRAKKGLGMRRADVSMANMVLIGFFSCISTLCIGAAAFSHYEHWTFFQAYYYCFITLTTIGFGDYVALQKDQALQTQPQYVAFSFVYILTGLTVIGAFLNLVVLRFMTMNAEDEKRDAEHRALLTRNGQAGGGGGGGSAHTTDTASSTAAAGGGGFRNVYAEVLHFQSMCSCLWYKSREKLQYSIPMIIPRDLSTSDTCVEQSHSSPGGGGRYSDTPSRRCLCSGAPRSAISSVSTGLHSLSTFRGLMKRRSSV

One experiment concerns the target Potassium channel subfamily K member 3 (Homo sapiens) (UniProt O14649). The experiment can be described thus: TASK1 (KCNK3) potassium channel inhibitors, SAR follow-up, CHO cells, FluxOR thallium flux (AID 652212). To be noted: FluxOR thallium flux fluorescence.
The IC50 is the concentration needed to halve the response being measured. On to `Cc1cccc(C(=O)Nc2cccc(NC(=O)c3cccc(Cl)c3)c2)c1`, for which the IC50 was 3 nM.

Take `Cc1ccccc1C(=O)Nc1cccc(NC(=O)c2ccccc2)c1`: the IC50 is 104 nM.

For the compound `O=C(Nc1cccc(NC(=O)c2cccc(C(F)(F)F)c2)c1)c1ccccc1`, the IC50 was 157 nM.

As for `Cc1cccc(C(=O)Nc2cccc(NC(=O)c3ccccc3Cl)c2)c1`, the IC50 was 23 nM.

Take `CC(C)c1ccccc1C(=O)Nc1cccc(NC(=O)c2ccccc2OC(F)(F)F)c1`: the IC50 is 11 nM.

Consider `COc1ccccc1C(=O)Nc1cccc(NC(=O)c2ccccc2OC(F)(F)F)c1`, for which the IC50 is 4 nM.

For `CN(C)c1ccc(C(=O)Nc2cccc(NC(=O)c3ccccc3)c2)cc1`, the IC50 was 259 nM.

For the compound `O=C(Nc1cccc(NC(=O)c2ccoc2)c1)c1ccccc1`, the IC50 is 799 nM.

As to `CCOc1ccccc1C(=O)Nc1cccc(NC(=O)c2ccccc2C(F)(F)F)c1`, the IC50 was 2 nM.

As for `O=C(Nc1cccc(NC(=O)c2ccccn2)c1)c1ccccc1`, the IC50 is 86 nM.

Turning to `Cc1cccc(C(=O)Nc2cccc(NC(=O)c3ccco3)c2)c1`, the IC50 is 143 nM.

On to `O=C(Nc1cccc(NC(=O)c2cccc(Cl)c2)c1)c1ccccc1`, for which the IC50 is 52 nM.

As to `O=C(Nc1cccc(NC(=O)c2ccncc2)c1)c1ccccc1`, the IC50 was 249 nM.

As to `COc1ccccc1C(=O)Nc1cccc(NC(=O)c2ccccc2C)c1`, the IC50 is 73 nM.

Turning to `COc1ccc(C(=O)Nc2cccc(NC(=O)c3cccc(C)c3)c2)cc1`, the IC50 is 1330 nM.

On to `Cc1cccc(C(=O)Nc2cccc(NC(=O)c3ccc(Cl)cc3)c2)c1`, for which the IC50 is 149 nM.

With `COc1ccccc1C(=O)Nc1cccc(NC(=O)c2ccccc2C(C)C)c1`, the IC50 was 7 nM.

Turning to `O=C(Nc1cccc(NC(=O)c2ccc(F)cc2)c1)c1ccccc1`, the IC50 was 306 nM.

For `COc1cccc(C(=O)Nc2cccc(NC(=O)c3cccc(C)c3)c2)c1`, the IC50 is 31 nM.

`CCOc1ccccc1C(=O)Nc1cccc(NC(=O)c2ccccc2OC)c1`: the IC50 was 2 nM.

As to `COc1ccccc1C(=O)Nc1cccc(NC(=O)c2ccccc2)c1`, the IC50 is 222 nM.

`CC(C)Oc1ccccc1C(=O)Nc1cccc(NC(=O)c2ccccc2OC(F)(F)F)c1`: the IC50 is 1 nM.

With `Cc1cccc(C(=O)Nc2cccc(NC(=O)c3cccc(F)c3)c2)c1`, the IC50 was 25 nM.

As to `COc1cccc(C(=O)Nc2cccc(NC(=O)c3ccccc3)c2)c1`, the IC50 is 327 nM.

Turning to `O=C(Nc1cccc(NC(=O)C2CCCCC2)c1)c1ccccc1`, the IC50 was 79 nM.

As for `O=C(Nc1cccc(NC(=O)c2cccs2)c1)c1ccccc1`, the IC50 is 29 nM.

As to `O=C(Nc1cccc(NC(=O)c2ccccc2Cl)c1)c1ccccc1`, the concentration for half-maximal inhibition (IC50) is 497 nM.

On to `O=C(Nc1cccc(NC(=O)c2ccsc2)c1)c1ccccc1`, for which the IC50 was 162 nM.

For `Cc1cccc(C(=O)Nc2cccc(NC(=O)c3ccccc3C(C)C)c2)c1`, the IC50 is 328 nM.

For `O=C(Nc1cccc(NC(=O)c2ccccc2C(F)(F)F)c1)c1ccccc1`, the IC50 was 130 nM.

Turning to `Cc1cccc(C(=O)Nc2cccc(NC(=O)c3ccc(N(C)C)cc3)c2)c1`, the IC50 was 145 nM.

Take `Cc1cccc(C(=O)Nc2cccc(NC(=O)c3cccc(C)c3)c2)c1`: the IC50 was 30 nM.

In the case of `O=C(Nc1cccc(NC(=O)c2cccnc2)c1)c1ccccc1`, the IC50 is 1290 nM.

Regarding `COc1ccccc1C(=O)Nc1cccc(NC(=O)c2ccccc2OC)c1`, the IC50 was 10 nM.

In the case of `COc1ccccc1C(=O)Nc1cccc(NC(=O)c2cccc(C)c2)c1`, the IC50 was 4 nM.

Consider `Cc1cccc(C(=O)Nc2cccc(NC(=O)c3ccccc3C)c2)c1`, for which the IC50 was 91 nM.

The experiment is the same for the next values; noted with them: FluxOR thallium flux fluorescence, at 3 µM (top of the series).
Consider `Cc1ccc(C(=O)Nc2cccc(NC(=O)c3ccccc3)c2)cc1`, for which the “normalized flux ratio, lower = inhibition” value is “inactive”.

`O=C(Nc1cccc(NC(=O)c2ccc(Cl)cc2)c1)c1ccccc1`: the “normalized flux ratio, lower = inhibition” value was “inactive”.

Consider `O=C(Nc1cccc(NC(=O)c2ccc(C(F)(F)F)cc2)c1)c1ccccc1`, for which the “normalized flux ratio, lower = inhibition” value was “inactive”.

On to `CC(C)(C)c1ccc(C(=O)Nc2cccc(NC(=O)c3ccccc3)c2)cc1`, for which the “normalized flux ratio, lower = inhibition” value was “inactive”.
